Assay [1] deals with PIK3CA (human) (UniProt P42336). Put plainly: Inhibition of PIK3CA Kinase Activity.
Assay [2] has the same target. The assay can be described thus: Inhibition of A2780 Cell Proliferation.

Data on 26 compounds can be found in the Kinase Knowledgebase extract (Sharma et al. 2016).

Chain of PIK3CA (human) (P42336 whole entry, looked up): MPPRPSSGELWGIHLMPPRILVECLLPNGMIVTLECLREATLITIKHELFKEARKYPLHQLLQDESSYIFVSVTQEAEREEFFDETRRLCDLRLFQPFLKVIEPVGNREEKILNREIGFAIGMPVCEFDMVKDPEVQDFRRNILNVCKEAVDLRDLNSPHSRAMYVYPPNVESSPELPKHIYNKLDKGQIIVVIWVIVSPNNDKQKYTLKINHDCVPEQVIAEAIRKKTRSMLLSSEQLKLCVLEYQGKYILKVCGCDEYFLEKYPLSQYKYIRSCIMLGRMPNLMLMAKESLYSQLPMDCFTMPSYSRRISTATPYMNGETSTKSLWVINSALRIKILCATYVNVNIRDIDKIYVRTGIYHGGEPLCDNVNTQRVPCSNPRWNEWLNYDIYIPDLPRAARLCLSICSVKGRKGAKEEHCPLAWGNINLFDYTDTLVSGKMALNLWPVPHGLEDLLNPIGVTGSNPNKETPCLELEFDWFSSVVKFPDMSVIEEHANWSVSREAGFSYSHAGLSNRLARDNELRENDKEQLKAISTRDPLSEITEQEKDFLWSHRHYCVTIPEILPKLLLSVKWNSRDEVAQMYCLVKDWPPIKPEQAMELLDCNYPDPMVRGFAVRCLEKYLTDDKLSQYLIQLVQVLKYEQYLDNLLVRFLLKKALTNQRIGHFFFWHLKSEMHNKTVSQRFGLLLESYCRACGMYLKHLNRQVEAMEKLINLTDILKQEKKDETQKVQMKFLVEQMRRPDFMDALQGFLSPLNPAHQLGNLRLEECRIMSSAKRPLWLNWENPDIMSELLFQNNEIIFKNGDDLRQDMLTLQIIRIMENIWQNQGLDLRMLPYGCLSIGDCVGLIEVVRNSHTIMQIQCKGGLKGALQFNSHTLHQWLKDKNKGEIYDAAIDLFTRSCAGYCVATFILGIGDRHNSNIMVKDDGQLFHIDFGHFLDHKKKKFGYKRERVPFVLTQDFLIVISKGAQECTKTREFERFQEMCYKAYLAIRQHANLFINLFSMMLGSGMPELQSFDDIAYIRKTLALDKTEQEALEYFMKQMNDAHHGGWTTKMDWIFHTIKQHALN

Take `Nc1ncc(-c2ccc3nc(NC(=O)CCCN4CCOCC4)sc3c2)cn1`: the IC50 in assay [1] was < 1000 nM. The EC50 in assay [2] is < 10000 nM.
As for `CC(C)(C)OC(=O)N1CCN(c2ccc(C(=O)Nc3cn4cc(-c5cnc(N)c(C(F)(F)F)c5)ccc4n3)cn2)CC1`, the IC50 in assay [1] is < 1000 nM. Also, the EC50 in assay [2] was < 1000 nM.
In the case of `COC(=O)Nc1cn2cc(-c3cnc(N)c(C(F)(F)F)c3)ccc2n1`, the IC50 in assay [1] was < 1000 nM. The EC50 in assay [2] was < 10000 nM.
For `CC(=O)Nc1nc2ccc(-c3cnc(N)c(C(F)(F)F)c3)cn2c1-c1ccc(C(N)=O)cc1`, in that order: < 1000 nM and < 25000 nM.
With `COc1ccc(C#Cc2c(NC(C)=O)nc3ccc(-c4cnc(N)c(C(F)(F)F)c4)cn23)cc1`, the IC50 in assay [1] was < 1000 nM. For the same compound, the EC50 in assay [2] was < 10000 nM.
Taken in the same sequence, the figures for `CC(=O)Nc1cn2cc(-c3cnc(N)c(N4CCOCC4)n3)ccc2n1` were < 1000 nM and < 10000 nM.
For `NC(=O)N1CCC[C@H]1C(=O)Nc1cn2cc(-c3cnc(N)c(C(F)(F)F)c3)ccc2n1`, in that order: < 10000 nM and < 10000 nM.
Taken in the same sequence, the figures for `CCC(=O)Nc1cn2nc(-c3cnc(N)c(C(F)(F)F)c3)ccc2n1` were < 1000 nM and < 1000 nM.
Regarding `Nc1ncc(-c2ccc3nc(NC(=O)c4ccc(N5CCNCC5)nc4)cn3c2)cc1C(F)(F)F`, the IC50 in assay [1] was < 1000 nM. The EC50 in assay [2] was < 10000 nM.
As to `CC(=O)Nc1cn2cc(-c3cnc(N)c(-c4cccc(N5CCOCC5)c4)c3)ccc2n1`, the half-inhibitory concentration (IC50) in assay [1] is < 1000 nM. The EC50 in assay [2] is < 1000 nM.
`C/C=C/C(=O)Nc1cn2cc(-c3cnc(N)c(C(F)(F)F)c3)ccc2n1`: in assay [1], the IC50 is < 1000 nM. In addition, in assay [2], the EC50 was < 10000 nM.
As to `Nc1ncc(-c2ccc3nc(NC(=O)N4CC[C@H](O)C4)cn3c2)cc1C(F)(F)F`, the IC50 in assay [1] was < 1000 nM. In addition, the EC50 in assay [2] was < 10000 nM.
As to `CC(=O)Nc1cn2cc(-c3cnc(N)c(C=O)c3)ccc2n1`, in assay [1], the half-maximal inhibitory concentration (IC50) is < 1000 nM. Besides, the EC50 in assay [2] was < 10000 nM.
For `CC(=O)Nc1cn2cc(-c3cnc(N)c(-c4cccc(C(F)(F)F)c4)c3)ccc2n1`, in that order: < 1000 nM and < 1000 nM.
Taken in the same sequence, the figures for `CC(=O)Nc1nc2ccc(-c3cnc(N)cc3C)cc2s1` were < 1000 nM and < 25000 nM.
For `CC(C)(C)OC(=O)N1CC[C@@H](OCC(=O)Nc2cn3nc(-c4cnc(N)c(C(F)(F)F)c4)ccc3n2)C1`, in that order: < 1000 nM and < 1000 nM.
For `CC(C)(C)OC(=O)N1CCC(OCC(=O)Nc2cn3cc(-c4cnc(N)c(C(F)(F)F)c4)ccc3n2)CC1`, in assay [1], the concentration for half-maximal inhibition (IC50) was < 1000 nM. For the same compound, in assay [2], the concentration giving a half-maximal response (EC50) is < 10000 nM.
Taken in the same sequence, the figures for `Nc1ncc(-c2ccc3nc(NC(=O)[C@@H]4CCCN4)cn3n2)cc1C(F)(F)F` were < 1000 nM and < 10000 nM.
Turning to `CCC(=O)Nc1cn2cc(-c3cnc(N)c(OC)n3)ccc2n1`, the half-maximal inhibitory concentration (IC50) in assay [1] was < 1000 nM. Further, the concentration giving a half-maximal response (EC50) in assay [2] was < 10000 nM.
As to `CC(=O)Nc1cn2cc(-c3cnc(N)c(C)n3)ccc2n1`, in assay [1], the IC50 is < 1000 nM. For the same compound, the EC50 in assay [2] is < 10000 nM.
On to `Nc1ncc(-c2ccc3nc(NC(=O)CCCO)cn3c2)cc1C(F)(F)F`, for which the IC50 in assay [1] was < 1000 nM. The EC50 in assay [2] is < 10000 nM.
As for `Cc1cc(C(=O)Nc2cn3cc(-c4cnc(N)c(C(F)(F)F)c4)ccc3n2)no1`, the IC50 in assay [1] is < 1000 nM. Besides, the concentration for a half-maximal effect (EC50) in assay [2] is < 1000 nM.
For the compound `CC(=O)Nc1cn2cc(-c3cnc(N)c(OCC4CCN(C)CC4)n3)ccc2n1`, the half-inhibitory concentration (IC50) in assay [1] was < 1000 nM. Also, the EC50 in assay [2] was < 10000 nM.
Taken in the same sequence, the figures for `COCCOc1nc(-c2ccc3nc(NC(=O)C4CCN4C(C)=O)cn3c2)cnc1N` (configuration not stated) were < 1000 nM and < 10000 nM.
For `CC(=O)Nc1cn2cc(-c3cnc(N)c(Oc4cccnc4)n3)ccc2n1`, in that order: < 1000 nM and < 1000 nM.
Taken in the same sequence, the figures for `Nc1ncc(-c2ccc3nc(NC(=O)c4ccc(-n5ccnc5)cc4)cn3c2)cc1C(F)(F)F` were < 1000 nM and < 10000 nM.
